Results taken from US20240190858A1, “CRYSTALLINE FORMS, PHARMACEUTICAL COMPOSITIONS AND METHODS OF USE THEREOF” (priority 2022, published 2024).
Values belong to the molecule of their own block, whether it stands above or below them.

Key:
[1] = Oral pharmacokinetics in cynomolgus monkey; assay type: in vivo, cynomolgous monkeys; settings: 3 mg/kg via oral gavage, n=3
Text: The dotted lines indicate the HAP1 MTAP-null and MTAP WT GI50s from a 7-day viability assay the compound. The data is presented as mean±SD.

[2] = system: MTAP-null OCI-LY19 cell line tumors; assay: OCI-LY19 MTAP-null xenograft, switch from TNG908 to compound of Formula (I); assay type: in vivo, mice; settings: 120 mg/kg BID
Text: The data is shown in FIG. 10A and FIG. 10B as mean±SEM. Regression is defined as final mean tumor volume <30% initial mean tumor volume.

[3] = system: MTAP-null NCI-H838 NSCLC CDX; assay: MTAP-null NCI-H838 NSCLC CDX model, combination with AGI-41998; assay type: in vivo; settings: AGI-41998 at 10 mg/kg QD, minimum of 28 days
Procedure: Briefly the groups were treated for a minimum of 28 days and tumor-volumes were monitored for the indicated time period.

pharmacokinetic properties [1]: good pharmacokinetic properties
Molecule: CCc1cc(NC(=O)C(=O)N2C[C@@H](C)CC[C@@H]2c2ccc3sc(C4CCN(C)CC4)nc3c2)cnc1N [compound of Formula (I), N-(6-amino-5-ethylpyridin-3-yl)-2-((2R,5S)-5-methyl-2-(2-(1-methylpiperidin-4-yl)benzo[d]thiazol-5-yl)piperidin-1-yl)-2-oxoacetamide]

Molecule: Cc1cc(NC(=O)C(=O)N2C[C@@H](C)CC[C@@H]2c2ccc3scnc3c2)cnc1N [TNG908]
tumor response under continuous dosing [2]: appear to have developed resistance

Molecule: AGI-41998
change in tumor volume [3]: increases in tumor volumes
